Source: patent US6211181A, “1-Benzenesulfonyl pyrrolidine derivatives as bradykinin receptor antagonists” (Fournier Industrie et Sante, priority 1995, dated 2001)
Counter-ions that a name gives are not always drawn.

What follows are compounds tested against T1, guinea-pig B2 receptor (Cavia porcellus, UniProt O70526) (assay: [3H]-bradykinin binding to guinea-pig ileum membranes). Details: test compound at 10^-6 M, [3H]-bradykinin 120 pM, 90 min at 20° C., read-out: ACTIVITY % (percentage inhibition of the binding of [3H]-bradykinin).
T1 construct: Ileum segments are isolated from male guinea-pigs of the Dunkin-Hartley strain; tissue Iffa Credo, l'Arbresle, France (supplier of the animals); host or cells: ileum membranes of male Dunkin-Hartley guinea pigs
T1 sequence (O70526 1-372): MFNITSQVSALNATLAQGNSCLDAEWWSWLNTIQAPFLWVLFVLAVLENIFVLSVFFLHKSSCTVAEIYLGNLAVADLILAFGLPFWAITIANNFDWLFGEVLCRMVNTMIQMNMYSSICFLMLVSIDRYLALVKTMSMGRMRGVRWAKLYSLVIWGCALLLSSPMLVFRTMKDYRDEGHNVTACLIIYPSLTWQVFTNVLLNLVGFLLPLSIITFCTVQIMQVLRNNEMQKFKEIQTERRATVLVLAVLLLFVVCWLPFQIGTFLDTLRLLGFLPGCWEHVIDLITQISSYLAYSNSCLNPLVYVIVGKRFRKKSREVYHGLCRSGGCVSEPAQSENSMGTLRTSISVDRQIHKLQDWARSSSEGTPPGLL
Method: The following pharmacological test is used: Ileum segments are isolated from male guinea-pigs of the Dunkin-Hartley strain (Iffa Credo, l'Arbresle, France) and ground in the following TES buffer: TES 25 mM, 1,10-phenanthroline 1 mM (pH 6.8), bacitracin 140 μg/ml, BSA 1 g/l. The membranes are then isolated by centrifugation (18,000 rpm; 20 min; 4° C.). The binding studies are carried out in the TES buffer using [^3 H]-bradykinin (120 pM) and 50 μg of membrane protein per test (final volume 500 μl) with an equilibrium time of 90 min at 20° C. […] The results obtained from these tests (shown as "activity") are collated in Table I below with reference to the Examples given in the description.

`Cc1cc(C)c2cccc(OCc3c(Cl)ccc(S(=O)(=O)N4CCC[C@H]4C(=O)NCCNC(=N)N)c3Cl)c2n1` [Example 19, 1-[[3-[(2,4-Dimethylquinolin-8yl)oxymethyl]-2,4-dichlorophenyl]sulfonyl]-N-[2-[(aminoiminomethyl)amino]ethyl]-2-(S)-pyrrolidinecarboxamide dihydrochloride] was tested. Which inhibition at 1 µM did it give?
Its inhibition at 1 µM is 97%.

Which inhibition at 1 µM does the source give for `Cc1cc(C)c2cccc(OCc3c(Cl)ccc(S(=O)(=O)N4C[C@H](O)C[C@H]4C(=O)N4CCN(C(=N)N)CC4)c3Cl)c2n1` [Example 15, 1-[[3-[(2,4-Dimethylquinolin-8-yl)oxymethyl]-2,4-dichlorophenyl]sulfonyl]-2-(S)-[[4-(aminoiminomethyl)piperazin-1-yl]carbonyl]-4-(R)-hydroxypyrrolidine bistrifluoroacetate] here?
The inhibition at 1 µM was 100%.

For `Cc1ccc2cccc(OCc3c(Cl)ccc(S(=O)(=O)N4CCC[C@H]4C(=O)N4CCN(C(=N)N)CC4)c3Cl)c2n1` [Example 24, 1-[[3-[(2-Methylquinolin-8-yl)oxymethyl]-2,4-dichlorophenyl]sulfonyl]-2-(S)-[[4-(aminoiminomethyl)piperazin-1-yl]carbonyl]pyrrolidine dihydrochloride], which inhibition at 1 µM is on record?
The inhibition at 1 µM was 98%.

`Cc1ccc2cccc(OCc3c(Cl)ccc(S(=O)(=O)N4CCC[C@H]4C(=O)NC4CCNCC4)c3Cl)c2n1` [Example 8, 1-[[3-[(2-Methylquinolin-8-yl)oxymethyl]-2,4-dichlorophenyl]sulfonyl]-N-(piperidin-4-yl)-2-(S)-pyrrolidinecarboxamide dihydrochloride] was tested. Which inhibition at 1 µM did it give?
The inhibition at 1 µM was 100%.

With `Cc1ccc2cccc(OCc3c(Cl)ccc(S(=O)(=O)N4CCC[C@H]4C(=O)NC4CCN(C(=N)N)CC4)c3Cl)c2n1` [Example 23, 1-[[3-[(2-Methylquinolin-8-yl)oxymethyl]-2,4-dichlorophenyl]sulfonyl]-N-[1-(aminoiminomethyl)piperidin-4-yl]-2-(S)-pyrrolidinecarboxamide dihydrochloride] as the compound, how does the inhibition at 1 µM read?
The inhibition at 1 µM was 100%.

For `Cc1ccc2cccc(OCc3c(Cl)ccc(S(=O)(=O)N4CCC[C@H]4C(=O)NCCCN)c3Cl)c2n1` [Example 9, 1-[[3-[(2-Methylquinolin-8-yl)oxymethyl]-2,4-dichlorophenyl]sulfonyl]-N-(3-aminopropyl)-2-(S)-pyrrolidinecarboxamide dihydrochloride], which inhibition at 1 µM is on record?
The inhibition at 1 µM was 100%.

How did the inhibition at 1 µM turn out when `Cc1cc(C)c2cccc(OCc3c(Cl)ccc(S(=O)(=O)N4CCC[C@H]4C(=O)N4CCN(C(=N)N)CC4)c3Cl)c2n1` [Example 14, 1-[[3-[(2,4-Dimethylquinolin-8-yl)oxymethyl]-2,4-dichlorophenyl]sulfonyl]-2-(S)-[[4-(aminoiminomethyl)piperazin-1-yl]carbonyl]pyrrolidine bistrifluoroacetate] was run?
Its inhibition at 1 µM is 98%.

Which inhibition at 1 µM does the source give for `Cc1ccc2cccc(OCc3c(Cl)ccc(S(=O)(=O)N4CCC[C@H]4C(=O)NCC4CCN(C(=N)N)CC4)c3Cl)c2n1` [Example 22, 1-[[3-[(2-Methylquinolin-8-yl)oxymethyl]-2,4-dichlorophenyl]sulfonyl]-N-[[1-(aminoiminomethyl)piperidin-4-yl]methyl]-2-(S)-pyrrolidinecarboxamide dihydrochloride] here?
Its inhibition at 1 µM is 98%.

Which inhibition at 1 µM does the source give for `Cc1ccc2cccc(OCc3c(Cl)ccc(S(=O)(=O)N4CCC[C@H]4C(=O)NCCNC(=N)N)c3Cl)c2n1` [Example 16, 1-[[3-[(2-Methylquinolin-8-yl)oxymethyl]-2,4-dichlorophenyl]sulfonyl]-N-[2-[(aminoiminomethyl)amino]ethyl]-2-(S)-pyrrolidinecarboxamide bistrifluoroacetate] here?
Its inhibition at 1 µM is 100%.

With `Cc1ccc2cccc(OCc3c(Cl)ccc(S(=O)(=O)N4CCC[C@H]4C(=O)N4CCNCC4)c3Cl)c2n1` [Example 2, 1-[[3-[(2-Methylquinolin-8-yl)oxymethyl]-2,4-dichlorophenyl]sulfonyl]-2-(S)-[(piperazin-1-yl)carbonyl]pyrrolidine] as the compound, how does the inhibition at 1 µM read?
Its inhibition at 1 µM is 100%.

With `Cc1ccc2cccc(OCc3c(Cl)ccc(S(=O)(=O)N4CCC[C@H]4C(=O)N4CCN(C(=NC(C)C)NC(C)C)CC4)c3Cl)c2n1` [Example 27, 1-[[3-[(2-Methylquinolin-8-yl)oxymethyl]-2,4-dichlorophenyl]sulfonyl]-2-(S)-[[4-[(1-methylethylamino)(1-methylethylimino)methyl]piperazin-1-yl]-carbonyl]pyrrolidine dihydrochloride] as the compound, how does the inhibition at 1 µM read?
Its inhibition at 1 µM is 100%.

How did the inhibition at 1 µM turn out when `Cc1ccc2cccc(OCc3c(Cl)ccc(S(=O)(=O)N4CCC[C@H]4C(=O)NCC4CCNCC4)c3Cl)c2n1` [Example 10, 1-[[3-[(2-Methylquinolin-8-yl)oxymethyl]-2,4-dichlorophenyl]sulfonyl]-N-[(piperidin-4-yl)methyl]-2-(S)-pyrrolidinecarboxamide dihydrochloride] was run?
The inhibition at 1 µM was 100%.

How did the inhibition at 1 µM turn out when `Cc1cc(C)c2cccc(OCc3c(Cl)ccc(S(=O)(=O)N4CCC[C@H]4C(=O)NCCCNC(=N)N)c3Cl)c2n1` [Example 20, 1-[[3-[(2,4-Dimethylquinolin-8-yl)oxymethyl]-2,4-dichlorophenyl]sulfonyl]-N-[3-[(aminoiminomethyl)amino]propyl]-2-(S)-pyrrolidinecarboxamide dihydrochloride] was run?
Its inhibition at 1 µM is 98%.

Which inhibition at 1 µM does the source give for `Cc1ccc2cccc(OCc3c(Cl)ccc(S(=O)(=O)N4CCC[C@H]4C(=O)N4CC(C)N(C(=N)N)C(C)C4)c3Cl)c2n1` (stereo partly drawn) [Example 25, 1-[[3-[(2-Methylquinolin-8yl)oxymethyl]-2,4-dichlorophenyl]sulfonyl]-2-(S)-[[4-(aminoiminomethyl)-3,5-dimethylpiperazin-1-yl]carbonyl]pyrrolidine dihydrochloride] here?
The inhibition at 1 µM was 100%.

`Cc1cc(C)c2cccc(OCc3c(Cl)ccc(S(=O)(=O)N4CCC[C@H]4C(=O)N4CCNCC4)c3Cl)c2n1` [Example 5, 1-[[3-[(2,4-Dimethylquinolin-8-yl)oxymethyl]-2,4-dichlorophenyl]sulfonyl]-2-(S)-[(piperazin-1-yl)carbonyl]pyrrolidine bistrifluoroacetate] was tested. Which inhibition at 1 µM did it give?
The inhibition at 1 µM was 100%.

With `Cc1ccc2cccc(OCc3c(Cl)ccc(S(=O)(=O)N4CCC[C@H]4C(=O)NCCN)c3Cl)c2n1` [Example 3, 1-[[3-[(2-Methylquinolin-8-yl)oxymethyl]-2,4-dichlorophenyl]sulfonyl]-N-(2-aminoethyl)-2-(S)-pyrrolidinecarboxamide] as the compound, how does the inhibition at 1 µM read?
The inhibition at 1 µM was 100%.
